Results on 27 molecules are retold here after patent publication US9708312B2, “Dihydropyrimidinoisoquinolinones and pharmaceutical compositions thereof for the treatment of inflammatory disorders (GPR84 antagonists)” (GALAPAGOS NV, priority 2012, dated 2017).

In this assay the target is T1, GPR84 (Homo sapiens, UniProt Q9NQS5).
T1 construct: expressed in transfected cells
Nature of the assay: GPR84 [35S]GTPγS binding assay, HEPES buffer. It is filed as biochemical. The note with it: 3,3′ di indolylmethane at EC80, membranes from stable cell line over expressing GPR84. In short, it runs like this:
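Membranes from a stable GPR84-overexpressing cell line (20 μg/well), pre-incubated with 0.1 μM GDP for 15 min at 4° C, mixed with 0.1 nM [35S]GTPγS and WGA SpA beads in 20 mM HEPES pH 7.4, 5 mM MgCl2, 250 mM NaCl, 0.05% BSA, 75 ug/mL saponin. Incubated 90 min at room temperature; scintillation proximity read after centrifugation.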
For orientation: GTPγS is a poorly hydrolysed GTP analogue; its binding reports G protein activation.

T1 sequence (Q9NQS5 whole entry): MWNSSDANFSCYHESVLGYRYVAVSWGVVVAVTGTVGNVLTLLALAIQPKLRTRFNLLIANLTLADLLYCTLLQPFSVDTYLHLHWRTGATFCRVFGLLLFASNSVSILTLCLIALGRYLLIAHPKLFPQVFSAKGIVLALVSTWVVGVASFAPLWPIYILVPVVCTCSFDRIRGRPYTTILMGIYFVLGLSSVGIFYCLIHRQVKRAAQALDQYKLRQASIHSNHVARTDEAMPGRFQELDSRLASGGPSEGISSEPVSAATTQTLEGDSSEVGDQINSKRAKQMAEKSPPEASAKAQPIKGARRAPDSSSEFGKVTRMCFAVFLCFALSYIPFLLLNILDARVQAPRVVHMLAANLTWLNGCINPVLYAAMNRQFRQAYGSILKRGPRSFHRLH

With `CCN(CC)C(=O)COc1ccc2c(c1)CCn1c-2cc(OCC2COc3ccccc3O2)nc1=O` (stereo not drawn) [compound 66, 2-[2-(2,3-dihydro-benzo[1,4]dioxin-2-ylmethoxy)-4-oxo-6,7-dihydro-4H-pyrimido[6,1-a]isoquinolin-9-yloxy]-N,N-diethyl-acetamide], the IC50 (in general, the concentration that gives 50% inhibition) was 100 to 500 nM. On to `CCCn1nnnc1COc1ccc2c(c1)CCn1c-2cc(OCC2COc3ccccc3O2)nc1=O` (stereo not drawn) [compound 69, 2-(2,3-dihydro-benzo[1,4]dioxin-2-ylmethoxy)-9-(1-propyl-1H-tetrazol-5-ylmethoxy)-6,7-dihydro-pyrimido[6,1-a]isoquinolin-4-one], for which the IC50 lay within 0.01 to 100 nM. With `O=c1nc(OCC2CCCO2)cc2n1CCc1cc(OCCOc3ccc(Cl)cc3)ccc1-2` (stereo not drawn) [compound 45, 9-[2-(4-chloro-phenoxy)-ethoxy]-2-(tetrahydro-furan-2-ylmethoxy)-6,7-dihydro-pyrimido[6,1-a]isoquinolin-4-one], the IC50 was 0.01 to 100 nM. As for `CCCCNCC#Cc1ccc2c(c1)CCn1c-2cc(OCC2COc3ncccc3O2)nc1=O` (stereo not drawn) [compound 191, 9-(3-butylamino-prop-1-ynyl)-2-(2,3-dihydro-[1,4]dioxino[2,3-b]pyridin-2-ylmethoxy)-6,7-dihydro-pyrimido[6,1-a]isoquinolin-4-one], the IC50 was 100 to 500 nM.

`Cc1nc(COc2ccc3c(c2)CCn2c-3cc(OCC3COc4ncccc4O3)nc2=O)no1` (stereo not drawn) [compound 154, 2-(2,3-dihydro-[1,4]dioxino[2,3-b]pyridin-2-ylmethoxy)-9-(5-methyl-[1,2,4]oxadiazol-3-ylmethoxy)-6,7-dihydro-pyrimido[6,1-a]isoquinolin-4-one] came in with an IC50 of 0.01 to 100 nM.

Turning to `CN1CCCC1CCOc1ccc2c(c1)CCn1c-2cc(OCC2COc3ccccc3O2)nc1=O` (stereo not drawn) [compound 83, 2-(2,3-dihydro-benzo[1,4]dioxin-2-ylmethoxy)-9-[2-(1-methyl-pyrrolidin-2-yl)-ethoxy]-6,7-dihydro-pyrimido[6,1-a]isoquinolin-4-one], the IC50 fell in the range of 100 to 500 nM. In turn, `O=c1nc(OCC2COc3ncccc3O2)cc2n1CCc1cc(C#CCN3CCS(=O)(=O)CC3)ccc1-2` (stereo not drawn) [compound 174, 2-(2,3-dihydro-[1,4]dioxino[2,3-b]pyridin-2-ylmethoxy)-9-[3-(1,1-dioxo-thiomorpholin-4-yl)-prop-1-ynyl]-6,7-dihydro-pyrimido[6,1-a]isoquinolin-4-one] yielded an IC50 of 100 to 500 nM. To `O=c1nc(OCC2COc3ncccc3O2)cc2n1CCc1cc(OCC3CCCCO3)ccc1-2` (stereo not drawn) [compound 179, 2-(2,3-dihydro-[1,4]dioxino[2,3-b]pyridin-2-ylmethoxy)-9-(tetrahydro-pyran-2-ylmethoxy)-6,7-dihydro-pyrimido[6,1-a]isoquinolin-4-one] belongs 0.01 to 100 nM; to `O=C(O)c1cccc(-c2ccc3c(c2)CCn2c-3cc(OCC3CCCO3)nc2=O)c1` (stereo not drawn) [compound 103, 3-[4-oxo-2-(tetrahydro-furan-2-ylmethoxy)-6,7-dihydro-4H-pyrimido[6,1-a]isoquinolin-9-yl]-benzoic acid], 500 to 1000 nM; to `NC1(C#Cc2ccc3c(c2)CCn2c-3cc(OCC3COc4ncccc4O3)nc2=O)CCCCC1` (stereo not drawn) [compound 184, 9-(1-amino-cyclohexylethynyl)-2-(2,3-dihydro-[1,4]dioxino[2,3-b]pyridin-2-ylmethoxy)-6,7-dihydro-pyrimido[6,1-a]isoquinolin-4-one], 100 to 500 nM.

With `O=c1nc(OCC2COc3ncccc3O2)cc2n1CCc1cc(C#CC3CC3)ccc1-2` (stereo not drawn) [compound 141, 9-cyclopropylethynyl-2-(2,3-dihydro-[1,4]dioxino[2,3-b]pyridin-2-ylmethoxy)-6,7-dihydro-pyrimido[6,1-a]isoquinolin-4-one], the IC50 is 0.01 to 100 nM. Turning to `O=c1nc(OCC2COc3ccccc3O2)cc2n1CCc1cc(OCCN3CCCC3)ccc1-2` (stereo not drawn) [compound 79, 2-(2,3-dihydro-benzo[1,4]dioxin-2-ylmethoxy)-9-(2-pyrrolidin-1-yl-ethoxy)-6,7-dihydro-pyrimido[6,1-a]isoquinolin-4-one], the IC50 lay within 100 to 500 nM.

`COc1cncc(-c2ccc3c(c2)CCn2c-3cc(OCC3COc4ncccc4O3)nc2=O)c1` (stereo not drawn) [compound 140, 2-(2,3-dihydro-[1,4]dioxino[2,3-b]pyridin-2-ylmethoxy)-9-(5-methoxy-pyridin-3-yl)-6,7-dihydro-pyrimido[6,1-a]isoquinolin-4-one] returned an IC50 of 0.01 to 100 nM. Under `COc1ncccc1-c1ccc2c(c1)CCn1c-2cc(OCC2COc3ncccc3O2)nc1=O` (stereo not drawn) [compound 145, 2-(2,3-dihydro-[1,4]dioxino[2,3-b]pyridin-2-ylmethoxy)-9-(2-methoxy-pyridin-3-yl)-6,7-dihydro-pyrimido[6,1-a]isoquinolin-4-one] stands 0.01 to 100 nM; under `O=c1nc(OCC2COc3ccccc3O2)cc2n1CCc1cc(OCc3nnnn3C3CC3)ccc1-2` (stereo not drawn) [compound 75, 9-(1-cyclopropyl-1H-tetrazol-5-ylmethoxy)-2-(2,3-dihydro-benzo[1,4]dioxin-2-ylmethoxy)-6,7-dihydro-pyrimido[6,1-a]isoquinolin-4-one], 0.01 to 100 nM; under `N#Cc1ccccc1-c1ccc2c(c1)CCn1c-2cc(OCC2CCCO2)nc1=O` (stereo not drawn) [compound 107, 2-[4-oxo-2-(tetrahydro-furan-2-ylmethoxy)-6,7-dihydro-4H-pyrimido[6,1-a]isoquinolin-9-yl]-benzonitrile], 500 to 1000 nM. In turn, `O=c1nc(OCC2CCCO2)cc2n1CCc1cc(OCCOc3cccc(Cl)c3)ccc1-2` (stereo not drawn) [compound 44, 9-[2-(3-chloro-phenoxy)-ethoxy]-2-(tetrahydro-furan-2-ylmethoxy)-6,7-dihydro-pyrimido[6,1-a]isoquinolin-4-one] gave an IC50 of 0.01 to 100 nM.

`O=c1nc(OCC2CCCO2)cc2n1CCc1cc(OCc3cccc(Cl)c3)ccc1-2` (stereo not drawn) [compound 22, 9-(3-chloro-benzyloxy)-2-(tetrahydro-furan-2-ylmethoxy)-6,7-dihydro-pyrimido[6,1-a]isoquinolin-4-one] returned an IC50 of 0.01 to 100 nM.

Molecule `O=c1nc(OCC2CCCO2)cc2n1CCc1cc(OCCOCc3ccccc3)ccc1-2` (stereo not drawn) [compound 51, 9-(2-benzyloxy-ethoxy)-2-(tetrahydro-furan-2-ylmethoxy)-6,7-dihydro-pyrimido[6,1-a]isoquinolin-4-one] registered an IC50 of 0.01 to 100 nM.

As to `O=c1nc(OCC2CCCO2)cc2n1CCc1cc(OCc3cccnc3)ccc1-2` (stereo not drawn) [compound 8, 9-(pyridin-3-ylmethoxy)-2-(tetrahydro-furan-2-ylmethoxy)-6,7-dihydro-pyrimido[6,1-a]isoquinolin-4-one], the IC50 is 100 to 500 nM. In turn, `CC(C)(C)c1nc(COc2ccc3c(c2)CCn2c-3cc(OCC3COc4ncccc4O3)nc2=O)no1` (stereo not drawn) [compound 158, 9-(5-tert-Butyl-[1,2,4]oxadiazol-3-ylmethoxy)-2-(2,3-dihydro-[1,4]dioxino[2,3-b]pyridin-2-ylmethoxy)-6,7-dihydro-pyrimido[6,1-a]isoquinolin-4-one] gave an IC50 of 0.01 to 100 nM. For `CC(C)(C)OC(=O)COc1ccc2c(c1)CCn1c-2cc(OCC2COc3ccccc3O2)nc1=O` (stereo not drawn) [compound 29, [2-(2,3-dihydro-benzo[1,4]dioxin-2-ylmethoxy)-4-oxo-6,7-dihydro-4H-pyrimido[6,1-a]isoquinolin-9-yloxy]-acetic acid tert-butyl ester], the IC50 fell in the range of 0.01 to 100 nM. To `O=C(COc1ccc2c(c1)CCn1c-2cc(OCC2COc3ccccc3O2)nc1=O)NCc1ccccc1` (stereo not drawn) [compound 78, N-benzyl-2-[2-(2,3-dihydro-benzo[1,4]dioxin-2-ylmethoxy)-4-oxo-6,7-dihydro-4H-pyrimido[6,1-a]isoquinolin-9-yloxy]-acetamide] belongs 0.01 to 100 nM; to `CCCn1nnnc1COc1ccc2c(c1)CCn1c-2cc(OCC2CCCO2)nc1=O` (stereo not drawn) [compound 64, 9-(1-propyl-1H-tetrazol-5-ylmethoxy)-2-(tetrahydro-furan-2-ylmethoxy)-6,7-dihydro-pyrimido[6,1-a]isoquinolin-4-one], 100 to 500 nM; to `N#Cc1cccc(COc2ccc3c(c2)CCn2c-3cc(OCC3CCCO3)nc2=O)c1` (stereo not drawn) [compound 19, 3-[4-oxo-2-(tetrahydro-furan-2-ylmethoxy)-6,7-dihydro-4H-pyrimido[6,1-a]isoquinolin-9-yloxymethyl]-benzonitrile], 100 to 500 nM. In turn, `O=c1nc(OCC2CCCO2)cc2n1CCc1cc(OCc3ccc([N+](=O)[O-])cc3)ccc1-2` (stereo not drawn) [compound 33, 9-(4-nitro-benzyloxy)-2-(tetrahydro-furan-2-ylmethoxy)-6,7-dihydro-pyrimido[6,1-a]isoquinolin-4-one] had an IC50 of 0.01 to 100 nM. Take `CCOc1ncccc1-c1ccc2c(c1)CCn1c-2cc(OCC2COc3ncccc3O2)nc1=O` (stereo not drawn) [compound 163, 2-(2,3-dihydro-[1,4]dioxino[2,3-b]pyridin-2-ylmethoxy)-9-(2-ethoxy-pyridin-3-yl)-6,7-dihydro-pyrimido[6,1-a]isoquinolin-4-one]: the IC50 was 0.01 to 100 nM.
